The term IC50 denotes the concentration needed to halve the response being measured.

In the test the target is T1, G12D-mutant human KRAS (amino acid residues 1-188) (Homo sapiens, UniProt P01116, G12D).
T1 construct: G12D or G12C-mutant human KRAS (amino acid residues 1-188) with FLAG tag; made in house; host or cells: E. coli
T1 sequence (P01116 1-188 isoform P01116-2 G12D): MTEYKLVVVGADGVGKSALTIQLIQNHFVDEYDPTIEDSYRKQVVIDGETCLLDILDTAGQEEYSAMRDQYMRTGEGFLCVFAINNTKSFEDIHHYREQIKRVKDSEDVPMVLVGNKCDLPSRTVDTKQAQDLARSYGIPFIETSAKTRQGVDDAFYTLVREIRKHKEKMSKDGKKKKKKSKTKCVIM
Briefly: KRAS Binding Disruption Assay (AlphaScreen; biotinylated KRpep-2d analogue or RAF1-RBD), G12D. The note with it: KRAS G12D; geometric mean; read-out: KRAS GMean IC50 (uM) MUTATION: G12D. As for the experimental part: Compound binding disrupts the interaction of KRpep-2d or RAF1-RBD with KRAS, leading to a decrease in Alpha signal.
All assay components were prepared in 20 mM HEPES (pH 7.5), 100 mM NaCl, 5 mM MgCl2, 0.01% Tween-20, and 0.01% BSA. Biotinylated analogues of KRpep-2d were custom synthesized. The binding disruption assays were performed using 5-20 nM of mutant KRAS and 5-20 nM of either biotinylated KRpep-2d analogue or RAF1-RBD. 19 μL of KRAS protein and 4 μL of biotinylated KRpep-2d or RAF1-RBD were added to the wells of a 384-well plate containing 1 μL of various concentrations of test compound or DMSO vehicle. 16 wells containing KRAS, biotinylated KRpep-2d or RAF1-RBD, and 5% DMSO served as high controls. 16 wells containing KRAS only and 5% DMSO served as low controls. Binding reactions were incubated for 1 hour at 25° C., then Anti-Flag Acceptor and Streptavidin Donor Alpha beads were added at a final concentration of 10 μg/mL for an additional hour at room temperature. Alpha signal was read out on a Perkin Elmer Envision HTS instrument. The percentage inhibition at individual compound concentrations relative to high and low controls was calculated. The data were analyzed by using nonlinear regression to generate IC50 values.
On the technique in general: In Alpha technology, singlet oxygen from a donor bead excites a nearby acceptor bead.
As to `CN1CCC[C@H]1COc1nc(N2C[C@H]3CC[C@@H](C2)N3C(=O)c2n[nH]c(=O)[nH]2)c2ccc(-c3cc(O)cc4ccccc34)cc2n1` [P-0113, 5-((1R,5S)-3-(7-(3-hydroxynaphthalen-1-yl)-2-(((S)-1-methylpyrrolidin-2-yl)methoxy)quinazolin-4-yl)-3,8-diazabicyclo[3.2.1]octane-8-carbonyl)-2,4-dihydro-3H-1,2,4-triazol-3-one], the 50% inhibitory concentration (IC50) was 10 to 100 µM.
Consider `O=C(CO)C1(O)CN(c2nc(N3C[C@H]4CC[C@@H](C3)N4)c3ccc(-c4cc(O)cc5ccccc45)c(F)c3n2)C1` [P-0507, 1-(1-(4-((1R,5S)-3,8-diazabicyclo[3.2.1]octan-3-yl)-8-fluoro-7-(3-hydroxynaphthalen-1-yl)quinazolin-2-yl)-3-hydroxyazetidin-3-yl)-2-hydroxyethan-1-one], for which the IC50 was 0.0001 to 10 µM.
Turning to `Oc1cc(-c2ccc3c(N4C[C@H]5CC[C@@H](C4)N5)nc(N4CCC5(CNC5)C4)nc3c2F)c2ccccc2c1` [P-0508, 4-(4-((1R,5S)-3,8-diazabicyclo[3.2.1]octan-3-yl)-8-fluoro-2-(2,6-diazaspiro[3.4]octan-6-yl)quinazolin-7-yl)naphthalen-2-ol], the 50% inhibitory concentration (IC50) was in the range of 0.0001 to 10 µM.
The same measure for `Oc1cc(-c2ccc3c(N4C[C@H]5CC[C@@H](C4)N5)nc(N4CC5CCNCC5C4)nc3c2F)c2ccccc2c1` (stereo partly drawn) [P-0509, 4-(4-((1R,5S)-3,8-diazabicyclo[3.2.1]octan-3-yl)-8-fluoro-2-(octahydro-2H-pyrrolo[3,4-c]pyridin-2-yl)quinazolin-7-yl)naphthalen-2-ol]: 0.0001 to 10 µM.
For the compound `C#Cc1cccc2[nH]cc(-c3ccc4c(N5C[C@H]6CC[C@@H](C5)N6)nc(OCC56CCCN5CCC6)nc4c3F)c12` [P-0513, 4-((1R,5S)-3,8-diazabicyclo[3.2.1]octan-3-yl)-7-(4-ethynyl-1H-indol-3-yl)-8-fluoro-2-((tetrahydro-1H-pyrrolizin-7a(5H)-yl)methoxy)quinazoline], the IC50 was in the range of 0.0001 to 10 µM.
Turning to `CC(=O)c1c(F)ccc2[nH]cc(-c3ccc4c(N5C[C@H]6CC[C@@H](C5)N6)nc(OCC56CCCN5CCC6)nc4c3F)c12` [P-0514], the IC50 is 0.0001 to 10 µM.
In the case of `C#Cc1c(F)ccc2[nH]cc(-c3ccc4c(N5C[C@H]6CC[C@@H](C5)N6)nc(OCC56CCCN5CCC6)nc4c3F)c12` [P-0515], the IC50 lay in the range of 0.0001 to 10 µM.
Regarding `CC(CO)(COc1nc(N2C[C@H]3CC[C@@H](C2)N3)c2ccc(-c3cc(O)cc4ccccc34)c(F)c2n1)c1ccccc1` (stereo partly drawn) [P-0516, 4-(4-((1R,5S)-3,8-diazabicyclo[3.2.1]octan-3-yl)-8-fluoro-2-(3-hydroxy-2-methyl-2-phenylpropoxy)quinazolin-7-yl)naphthalen-2-ol], the half-inhibitory concentration (IC50) fell in the range of 0.0001 to 10 µM.
On to `O=C(O)CCc1cccc2[nH]cc(-c3ccc4c(N5C[C@H]6CC[C@@H](C5)N6)nc(OCC56CCCN5CCC6)nc4c3F)c12` [P-0518, 3-(3-(4-((1R,5S)-3,8-diazabicyclo[3.2.1]octan-3-yl)-8-fluoro-2-((tetrahydro-1H-pyrrolizin-7a(5H)-yl)methoxy)quinazolin-7-yl)-1H-indol-4-yl)propanoic acid], for which the IC50 was 0.0001 to 10 µM.
With `N#CCCc1cccc2[nH]cc(-c3ccc4c(N5C[C@H]6CC[C@@H](C5)N6)nc(OCC56CCCN5CCC6)nc4c3F)c12` [P-0519, 3-(3-(4-((1R,5S)-3,8-diazabicyclo[3.2.1]octan-3-yl)-8-fluoro-2-((tetrahydro-1H-pyrrolizin-7a(5H)-yl)methoxy)quinazolin-7-yl)-1H-indol-4-yl)propanenitrile], the IC50 was in the range of 0.0001 to 10 µM.
Regarding `O=C1NCCN1CCOc1nc(N2C[C@H]3CC[C@@H](C2)N3)c2ccc(-c3cc(O)cc4ccccc34)c(F)c2n1` [P-0520, 1-(2-((4-((1R,5S)-3,8-diazabicyclo[3.2.1]octan-3-yl)-8-fluoro-7-(3-hydroxynaphthalen-1-yl)quinazolin-2-yl)oxy)ethyl)imidazolidin-2-one], the IC50 was 0.0001 to 10 µM.
On to `C#Cc1cccc2cccc(-c3ccc4c(N5C[C@H]6CC[C@@H](C5)N6)nc(OCC56CCCN5CCC6)nc4c3F)c12` [P-0521, 4-((1R,5S)-3,8-diazabicyclo[3.2.1]octan-3-yl)-7-(8-ethynylnaphthalen-1-yl)-8-fluoro-2-((tetrahydro-1H-pyrrolizin-7a(5H)-yl)methoxy)quinazoline], for which the IC50 is 0.0001 to 10 µM.
Regarding `CC(=O)c1cccc2cccc(-c3ccc4c(N5C[C@H]6CC[C@@H](C5)N6)nc(OCC56CCCN5CCC6)nc4c3F)c12` [P-0522, 1-(8-(4-((1R,5S)-3,8-diazabicyclo[3.2.1]octan-3-yl)-8-fluoro-2-((tetrahydro-1H-pyrrolizin-7a(5H)-yl)methoxy)quinazolin-7-yl)naphthalen-1-yl)ethan-1-one], the half-maximal inhibitory concentration (IC50) lay in the range of 0.0001 to 10 µM.
In the case of `Cc1ccc2[nH]ncc2c1-c1c(Cl)cc2c(N3C[C@H]4CC[C@@H](C3)N4)nc(OCC34CCCN3CCC4)nc2c1F` [P-0523, 4-((1R,5S)-3,8-diazabicyclo[3.2.1]octan-3-yl)-6-chloro-8-fluoro-7-(5-methyl-1H-indazol-4-yl)-2-((tetrahydro-1H-pyrrolizin-7a(5H)-yl)methoxy)quinazoline], the IC50 was 0.0001 to 10 µM.
`OCC(CO)COc1nc(N2C[C@H]3CC[C@@H](C2)N3)c2ccc(-c3cc(O)cc4ccccc34)c(F)c2n1` [P-0524, 2-(((4-((1R,5S)-3,8-diazabicyclo[3.2.1]octan-3-yl)-8-fluoro-7-(3-hydroxynaphthalen-1-yl)quinazolin-2-yl)oxy)methyl)propane-1,3-diol]: the half-maximal inhibitory concentration (IC50) was in the range of 0.0001 to 10 µM.
`CC(CO)(CO)COc1nc(N2C[C@H]3CC[C@@H](C2)N3)c2ccc(-c3cc(O)cc4ccccc34)c(F)c2n1` [P-0525, 2-(((4-((1R,5S)-3,8-diazabicyclo[3.2.1]octan-3-yl)-8-fluoro-7-(3-hydroxynaphthalen-1-yl)quinazolin-2-yl)oxy)methyl)-2-methylpropane-1,3-diol]: the 50% inhibitory concentration (IC50) fell in the range of 0.0001 to 10 µM.
The same measure for `Oc1cc(-c2ccc3c(N4C[C@H]5CC[C@@H](C4)N5)nc(N4CCC5(CCNC5)C4)nc3c2F)c2ccccc2c1` (stereo partly drawn) [P-0526, 4-(4-((1R,5S)-3,8-diazabicyclo[3.2.1]octan-3-yl)-8-fluoro-2-(2,7-diazaspiro[4.4]nonan-2-yl)quinazolin-7-yl)naphthalen-2-ol]: 0.0001 to 10 µM; for `Oc1cc(-c2ccc3c(N4C[C@H]5CC[C@@H](C4)N5)nc(N4CCC5(CCOCC5)C4)nc3c2F)c2ccccc2c1` [P-0527, 4-(4-((1R,5S)-3,8-diazabicyclo[3.2.1]octan-3-yl)-8-fluoro-2-(8-oxa-2-azaspiro[4.5]decan-2-yl)quinazolin-7-yl)naphthalen-2-ol]: 0.0001 to 10 µM; for `Oc1cc(-c2ccc3c(N4C[C@H]5CC[C@@H](C4)N5)nc(N4CCC5(CCOC5)C4)nc3c2F)c2ccccc2c1` (stereo partly drawn) [P-0528, 4-(4-((1R,5S)-3,8-diazabicyclo[3.2.1]octan-3-yl)-8-fluoro-2-(2-oxa-7-azaspiro[4.4]nonan-7-yl)quinazolin-7-yl)naphthalen-2-ol]: 0.0001 to 10 µM.
Next, `CNCC1(CC#N)CCN(c2nc(N3C[C@H]4CC[C@@H](C3)N4)c3ccc(-c4cc(O)cc5ccccc45)c(F)c3n2)C1` (stereo partly drawn) [P-0529, 2-(1-(4-((1R,5S)-3,8-diazabicyclo[3.2.1]octan-3-yl)-8-fluoro-7-(3-hydroxynaphthalen-1-yl)quinazolin-2-yl)-3-((methylamino)methyl)pyrrolidin-3-yl)acetonitrile]: 0.0001 to 10 µM.
For the compound `CCN(CC)C1CCN(c2nc(N3C[C@H]4CC[C@@H](C3)N4)c3ccc(-c4cc(O)cc5ccccc45)c(F)c3n2)C1` (stereo partly drawn) [P-0530, 4-(4-((1R,5S)-3,8-diazabicyclo[3.2.1]octan-3-yl)-2-(3-(diethylamino)pyrrolidin-1-yl)-8-fluoroquinazolin-7-yl)naphthalen-2-ol], the IC50 is 0.0001 to 10 µM.
Turning to `CCNC1CCN(c2nc(N3C[C@H]4CC[C@@H](C3)N4)c3ccc(-c4cc(O)cc5ccccc45)c(F)c3n2)C1` (stereo partly drawn) [P-0531, 4-(4-((1R,5S)-3,8-diazabicyclo[3.2.1]octan-3-yl)-2-(3-(ethylamino)pyrrolidin-1-yl)-8-fluoroquinazolin-7-yl)naphthalen-2-ol], the IC50 was in the range of 0.0001 to 10 µM.
For `Oc1cc(-c2c(Cl)cc3c(N4C[C@H]5CC[C@@H](C4)N5)nc(OCCCN4CCC(F)(F)C4)nc3c2F)c2ccccc2c1` [P-0532, 4-(4-((1R,5S)-3,8-diazabicyclo[3.2.1]octan-3-yl)-6-chloro-2-(3-(3,3-difluoropyrrolidin-1-yl)propoxy)-8-fluoroquinazolin-7-yl)naphthalen-2-ol], the IC50 was 0.0001 to 10 µM.
Take `Fc1c(-c2csc3ccccc23)ccc2c(N3C[C@H]4CC[C@@H](C3)N4)nc(OCC34CCCN3CCC4)nc12` [P-0533, 7-(benzo[b]thiophen-3-yl)-4-((1R,5S)-3,8-diazabicyclo[3.2.1]octan-3-yl)-8-fluoro-2-((tetrahydro-1H-pyrrolizin-7a(5H)-yl)methoxy)quinazoline]: the IC50 fell in the range of 0.0001 to 10 µM.
As to `Fc1c(-c2csc3cccc(Cl)c23)ccc2c(N3C[C@H]4CC[C@@H](C3)N4)nc(OCC34CCCN3CCC4)nc12` [P-0534], the half-inhibitory concentration (IC50) lay in the range of 0.0001 to 10 µM.

The values are drawn from patent US20230081426A1, “COMPOUNDS AND METHODS FOR KRAS MODULATION AND INDICATIONS THEREFOR” (Plexxikon Inc., priority 2020, published 2023).
